# Data published in ChEMBL document CHEMBL1152598, “Synthesis and dopaminergic activity of some E-3-(piperidin-1-yl)-1-(4-substituted phenyl)prop-2-en-1-one derivatives” (2009).
# The source made the active and inactive calls. The calls are words filed in the database; no cut-off is given here.
# Tested on: Rattus norvegicus
# Experiment: Dopaminergic activity in apomorphine-induced Wistar rat assessed as licking count at 30 mg/kg, ip treated 15 mins before apomorphine challenge measured after 10 mins for 60 mins by behavioral study
# Settings: route intraperitoneal
row,SMILES,Activity
1,COc1ccc(C(=O)/C=C/N2CCC(O)(c3ccc(O)cc3)CC2)c(O)c1,2675
2,COc1ccc(C(=O)/C=C/N2CCC(O)(c3ccccc3)CC2)c(O)c1,1800
3,O=C(/C=C/N1CCC(c2ccc(O)cc2)CC1)c1ccc(O)cc1O,664
4,COc1ccc(C(=O)/C=C/N2CCC(Cc3ccccc3)CC2)c(O)c1,520
5,COc1ccc(C(=O)/C=C/N2CCC(O)(c3ccc(Cl)cc3)CC2)c(O)c1,1575
6,O=C(/C=C/N1CCC(Cc2ccccc2)CC1)c1ccc(O)cc1O,618
7,COc1ccc(C(=O)/C=C/N2CCC(c3ccc(O)cc3)CC2)c(O)c1,1325
8,O=C(/C=C/N1CCC(O)(c2ccc(Cl)cc2)CC1)c1ccc(O)cc1O,115
9,COc1ccc(C(=O)/C=C/N2CCC(O)(c3ccc(Br)cc3)CC2)c(O)c1,1140
10,O=C(/C=C/N1CCC(O)(c2ccccc2)CC1)c1ccc(O)cc1O,1317
11,O=C(/C=C/N1CCC(O)(c2ccc(O)cc2)CC1)c1ccc(O)cc1O,1450
12,O=C(/C=C/N1CCC(O)(c2ccc(Br)cc2)CC1)c1ccc(O)cc1O,1860

# Tested on: Rattus norvegicus
# Experiment: Effect on dopaminergic activity in apomorphine-induced Wistar rat assessed as licking count at 10 to 30 mg/kg, ip treated 15 mins before apomorphine challenge measured after 10 mins for 60 mins by behavioral study
# Settings: not given
row,SMILES,Activity
1,O=C(/C=C/N1CCC(O)(c2ccc(Cl)cc2)CC1)c1ccc(O)cc1O,Active

# Tested on: Rattus norvegicus
# Experiment: Dopaminergic activity in apomorphine-induced Wistar rat assessed as licking count at 0.5 mg/kg, iv treated 15 mins before apomorphine challenge measured after 10 mins for 60 mins by behavioral study
# Format: functional
# Settings: not given
row,SMILES,Activity
1,O=C(CCCN1CCC(O)(c2ccc(Cl)cc2)CC1)c1ccc(F)cc1 [HALOPERIDOL],3.667
